Patent publication US11981658B2, “Substituted aminopyridine compounds as EGFR inhibitors” (YUHAN CORPORATION, priority 2021, dated 2024)
Read-outs that look alike come from different tables or passages of the source.

Columns and labels:
EGFR L858R/T790M/C797S = EGFR L858R/T790M/C797S (Homo sapiens, UniProt P00533, C797S/L858R/T790M); experiment: Biochemical EGFR kinase inhibition assay (Lance Ultra TR-FRET), triple mutant L858R/T790M/C797S
In short: (§1)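 Enzyme reactions lasted 1 hour at room temperature with test compounds between 0.003 and 10 μM, followed by 10 mM EDTA quench.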

EGFR L858R/C797S = EGFR L858R/C797S (Homo sapiens, UniProt P00533, C797S/L858R); experiment: Biochemical EGFR kinase inhibition assay (Lance Ultra TR-FRET), double mutant L858R/C797S
In short: as §1

EGFR Del19/T790M/C797S = EGFR Del19/T790M/C797S (Homo sapiens, UniProt P00533, C797S/DEL746-750/T790M); experiment: Biochemical EGFR kinase inhibition assay (Lance Ultra TR-FRET), triple mutant del19/T790M/C797S
Sequence of EGFR Del19/T790M/C797S (P00533 with tags, fused parts or gaps DEL746-750/T790M/C797S): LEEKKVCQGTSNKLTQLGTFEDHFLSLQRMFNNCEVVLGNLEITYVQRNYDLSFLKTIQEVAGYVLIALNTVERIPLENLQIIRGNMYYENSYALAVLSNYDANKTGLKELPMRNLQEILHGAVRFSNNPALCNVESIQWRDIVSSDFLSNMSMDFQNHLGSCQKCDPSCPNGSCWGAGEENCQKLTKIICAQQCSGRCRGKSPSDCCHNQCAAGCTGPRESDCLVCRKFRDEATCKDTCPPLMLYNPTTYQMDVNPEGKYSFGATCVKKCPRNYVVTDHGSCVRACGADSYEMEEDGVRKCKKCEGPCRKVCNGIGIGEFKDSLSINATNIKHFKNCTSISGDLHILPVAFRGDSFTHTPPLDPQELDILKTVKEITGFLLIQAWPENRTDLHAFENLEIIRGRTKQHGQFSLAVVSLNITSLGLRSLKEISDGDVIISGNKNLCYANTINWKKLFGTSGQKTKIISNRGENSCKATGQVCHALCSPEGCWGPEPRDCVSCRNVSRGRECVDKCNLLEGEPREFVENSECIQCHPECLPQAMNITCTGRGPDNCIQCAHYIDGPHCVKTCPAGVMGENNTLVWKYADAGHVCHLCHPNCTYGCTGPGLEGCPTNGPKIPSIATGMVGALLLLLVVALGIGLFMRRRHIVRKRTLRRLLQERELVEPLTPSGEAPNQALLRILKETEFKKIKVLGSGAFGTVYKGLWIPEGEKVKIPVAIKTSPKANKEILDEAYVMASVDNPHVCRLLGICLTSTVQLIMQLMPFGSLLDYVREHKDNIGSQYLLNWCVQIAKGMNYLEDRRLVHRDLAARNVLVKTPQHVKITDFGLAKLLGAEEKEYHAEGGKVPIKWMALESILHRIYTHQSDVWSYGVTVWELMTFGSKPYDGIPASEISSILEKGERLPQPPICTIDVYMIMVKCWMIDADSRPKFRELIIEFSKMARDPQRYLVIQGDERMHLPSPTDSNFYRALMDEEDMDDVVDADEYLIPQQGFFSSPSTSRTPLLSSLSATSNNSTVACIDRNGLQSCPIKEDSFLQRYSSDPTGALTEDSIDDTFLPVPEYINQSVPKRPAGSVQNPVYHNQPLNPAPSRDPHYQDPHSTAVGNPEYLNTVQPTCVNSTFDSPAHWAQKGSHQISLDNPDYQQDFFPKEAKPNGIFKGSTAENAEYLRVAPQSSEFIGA
In short: as §1

EGFR Del19/C797S = EGFR Del19/C797S (Homo sapiens, UniProt P00533, C797S/DEL746-750); experiment: Biochemical EGFR kinase inhibition assay (Lance Ultra TR-FRET), double mutant del19/C797S
Sequence of EGFR Del19/C797S (P00533 with tags, fused parts or gaps DEL746-750/C797S): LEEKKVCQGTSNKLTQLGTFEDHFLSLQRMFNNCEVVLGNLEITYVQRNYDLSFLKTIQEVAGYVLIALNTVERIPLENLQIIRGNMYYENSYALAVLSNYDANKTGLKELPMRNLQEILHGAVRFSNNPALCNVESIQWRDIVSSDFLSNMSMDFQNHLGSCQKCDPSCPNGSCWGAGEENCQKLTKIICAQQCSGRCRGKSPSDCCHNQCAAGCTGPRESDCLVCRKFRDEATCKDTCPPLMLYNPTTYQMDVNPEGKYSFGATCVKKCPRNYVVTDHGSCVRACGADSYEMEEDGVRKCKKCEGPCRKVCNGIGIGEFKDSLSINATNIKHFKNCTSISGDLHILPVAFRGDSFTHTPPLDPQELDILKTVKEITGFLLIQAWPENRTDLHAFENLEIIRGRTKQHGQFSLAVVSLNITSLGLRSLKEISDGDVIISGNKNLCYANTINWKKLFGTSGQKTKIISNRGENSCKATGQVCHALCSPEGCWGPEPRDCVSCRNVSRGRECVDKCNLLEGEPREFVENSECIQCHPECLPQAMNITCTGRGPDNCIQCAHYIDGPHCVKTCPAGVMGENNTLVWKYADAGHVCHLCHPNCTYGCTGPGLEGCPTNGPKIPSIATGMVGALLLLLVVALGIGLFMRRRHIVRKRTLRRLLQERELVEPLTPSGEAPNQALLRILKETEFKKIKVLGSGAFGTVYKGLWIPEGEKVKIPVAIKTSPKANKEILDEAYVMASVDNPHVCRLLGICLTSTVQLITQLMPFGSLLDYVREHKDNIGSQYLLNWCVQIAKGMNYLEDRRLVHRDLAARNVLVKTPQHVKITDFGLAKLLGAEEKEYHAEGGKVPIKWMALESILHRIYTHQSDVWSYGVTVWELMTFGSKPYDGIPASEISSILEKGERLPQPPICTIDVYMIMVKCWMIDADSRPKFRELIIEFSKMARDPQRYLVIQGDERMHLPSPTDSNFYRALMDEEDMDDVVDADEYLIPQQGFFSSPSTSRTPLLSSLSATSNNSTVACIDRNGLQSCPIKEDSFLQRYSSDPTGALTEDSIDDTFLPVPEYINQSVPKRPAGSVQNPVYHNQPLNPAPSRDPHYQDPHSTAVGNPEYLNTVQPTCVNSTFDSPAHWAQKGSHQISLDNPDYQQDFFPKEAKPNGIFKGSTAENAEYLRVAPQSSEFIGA
In short: as §1

EGFR wildtype (WT) = EGFR wildtype (WT) (Homo sapiens, UniProt P00533); experiment: Biochemical EGFR kinase inhibition assay (Lance Ultra TR-FRET), wildtype
Sequence of EGFR wildtype (WT) (P00533 25-1210): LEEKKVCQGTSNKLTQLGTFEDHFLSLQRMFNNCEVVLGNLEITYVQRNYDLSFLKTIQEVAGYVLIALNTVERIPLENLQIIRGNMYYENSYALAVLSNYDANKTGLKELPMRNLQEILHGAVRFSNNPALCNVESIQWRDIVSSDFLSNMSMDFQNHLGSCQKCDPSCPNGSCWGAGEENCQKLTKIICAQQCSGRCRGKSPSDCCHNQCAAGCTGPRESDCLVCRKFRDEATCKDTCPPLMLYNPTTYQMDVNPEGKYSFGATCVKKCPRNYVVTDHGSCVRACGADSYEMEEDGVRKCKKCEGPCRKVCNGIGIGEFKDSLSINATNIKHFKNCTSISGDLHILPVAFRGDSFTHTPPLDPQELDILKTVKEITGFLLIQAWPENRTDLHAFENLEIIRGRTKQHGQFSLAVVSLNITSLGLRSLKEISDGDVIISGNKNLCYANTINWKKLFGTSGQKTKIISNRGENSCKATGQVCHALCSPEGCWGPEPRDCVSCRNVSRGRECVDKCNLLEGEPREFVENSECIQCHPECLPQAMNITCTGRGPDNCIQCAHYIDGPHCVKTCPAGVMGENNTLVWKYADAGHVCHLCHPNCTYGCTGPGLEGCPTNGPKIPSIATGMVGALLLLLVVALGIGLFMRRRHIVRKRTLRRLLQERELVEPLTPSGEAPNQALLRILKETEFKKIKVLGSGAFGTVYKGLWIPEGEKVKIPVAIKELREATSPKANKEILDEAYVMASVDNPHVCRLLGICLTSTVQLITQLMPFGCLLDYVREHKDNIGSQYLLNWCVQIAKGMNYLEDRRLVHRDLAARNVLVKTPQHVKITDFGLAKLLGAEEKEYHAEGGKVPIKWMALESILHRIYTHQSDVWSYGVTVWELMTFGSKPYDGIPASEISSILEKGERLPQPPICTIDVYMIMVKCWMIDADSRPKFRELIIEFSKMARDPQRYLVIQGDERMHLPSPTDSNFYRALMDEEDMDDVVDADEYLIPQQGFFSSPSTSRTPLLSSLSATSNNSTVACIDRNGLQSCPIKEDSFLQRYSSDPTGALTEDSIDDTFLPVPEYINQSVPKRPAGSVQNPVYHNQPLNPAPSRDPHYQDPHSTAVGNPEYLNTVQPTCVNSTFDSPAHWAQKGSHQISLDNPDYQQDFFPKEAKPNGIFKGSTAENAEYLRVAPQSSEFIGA
In short: as §1

[1] = IC50 L858R/T790M/C797S (nM), 100 μM ATP
[2] = IC50 L858R/C797S (nM), 100 μM ATP
[3] = IC50 Del19/T790M/C797S (nM), 100 μM ATP
[4] = IC50 Del19/C797S (nM), 100 μM ATP
[5] = Km ATP, read-out: IC50 L858R/T790M/C797S (nM) Km ATP
[6] = Km ATP, read-out: IC50 L858R/C797S (nM) Km ATP
[7] = Km ATP, read-out: IC50 Del19/T790M/C797S (nM) Km ATP
[8] = Km ATP, read-out: IC50 Del19/C797S (nM) Km ATP
[9] = Km ATP, read-out: IC50 WT (nM) Km ATP

Sequence of EGFR L858R/T790M/C797S (P00533 25-1210 T790M/C797S/L858R): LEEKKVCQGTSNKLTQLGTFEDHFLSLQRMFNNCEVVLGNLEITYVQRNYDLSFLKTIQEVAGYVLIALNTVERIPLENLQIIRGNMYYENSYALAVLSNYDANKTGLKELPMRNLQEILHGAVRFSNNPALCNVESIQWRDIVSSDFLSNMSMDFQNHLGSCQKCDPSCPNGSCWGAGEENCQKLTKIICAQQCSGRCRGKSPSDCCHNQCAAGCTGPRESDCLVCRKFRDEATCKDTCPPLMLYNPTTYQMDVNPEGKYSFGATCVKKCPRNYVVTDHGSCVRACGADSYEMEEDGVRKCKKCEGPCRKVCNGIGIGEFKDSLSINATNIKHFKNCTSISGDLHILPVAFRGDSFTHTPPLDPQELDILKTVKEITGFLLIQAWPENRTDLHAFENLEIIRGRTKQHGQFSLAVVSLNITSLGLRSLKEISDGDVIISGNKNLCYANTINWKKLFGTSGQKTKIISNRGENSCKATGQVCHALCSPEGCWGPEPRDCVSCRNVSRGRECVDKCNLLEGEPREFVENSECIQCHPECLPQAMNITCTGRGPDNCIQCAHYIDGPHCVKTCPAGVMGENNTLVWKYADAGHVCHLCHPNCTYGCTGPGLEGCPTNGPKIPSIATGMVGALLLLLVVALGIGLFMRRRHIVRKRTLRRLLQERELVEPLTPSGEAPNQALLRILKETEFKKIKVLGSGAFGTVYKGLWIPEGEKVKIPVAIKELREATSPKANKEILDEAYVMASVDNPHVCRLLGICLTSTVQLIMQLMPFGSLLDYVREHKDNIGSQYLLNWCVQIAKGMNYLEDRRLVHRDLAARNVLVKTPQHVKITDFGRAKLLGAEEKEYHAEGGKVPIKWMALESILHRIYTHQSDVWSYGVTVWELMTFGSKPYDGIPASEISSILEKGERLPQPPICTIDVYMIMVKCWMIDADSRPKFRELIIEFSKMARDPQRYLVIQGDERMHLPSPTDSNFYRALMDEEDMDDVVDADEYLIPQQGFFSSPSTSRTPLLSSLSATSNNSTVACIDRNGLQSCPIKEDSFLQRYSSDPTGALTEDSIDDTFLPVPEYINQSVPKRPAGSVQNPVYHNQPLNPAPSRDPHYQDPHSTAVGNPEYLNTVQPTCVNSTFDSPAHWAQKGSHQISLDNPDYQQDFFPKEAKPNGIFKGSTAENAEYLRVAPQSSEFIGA

Structure (SMILES) | IC50 (EGFR L858R/T790M/C797S; [1]) | IC50 (EGFR L858R/C797S; [2]) | IC50 (EGFR Del19/T790M/C797S; [3]) | IC50 (EGFR Del19/C797S; [4]) | IC50 (EGFR wildtype (WT); IC50 WT (nM), 100 μM ATP) | IC50 (EGFR L858R/T790M/C797S; [5]) | IC50 (EGFR L858R/C797S; [6]) | IC50 (EGFR Del19/T790M/C797S; [7]) | IC50 (EGFR Del19/C797S; [8]) | IC50 (EGFR wildtype (WT); [9])
O=S(=O)(C1CC1)n1cc(-c2nccc(Nc3cc(N4CCC(CO)CC4)c(C#Cc4cnn(C5CC5(F)F)c4)cn3)n2)cn1 (stereo not shown) [Example 83, (1-(2-((2-(1-(Cyclopropylsulfonyl)-1H-pyrazol-4-yl)pyrimidin-4-yl)amino)-5-((1-(2,2-difluorocyclopropyl)-1H-pyrazol-4-yl)ethynyl)pyridin-4-yl)piperidin-4-yl)methanol] | 2.5 nM | 24.4 nM | 1.3 nM | 4 nM | > 10000 nM |  |  |  |  | 
O=S(=O)(C1CC1)n1cc(-c2nccc(Nc3cc(N4CCC(CCO)CC4)c(C#Cc4cnn(C5CC5(F)F)c4)cn3)n2)cn1 (stereo not shown) [Example 84, 2-(1-(2-((2-(1-(Cyclopropylsulfonyl)-1H-pyrazol-4-yl)pyrimidin-4-yl)amino)-5-((1-(2,2-difluorocyclopropyl)-1H-pyrazol-4-yl)ethynyl)pyridin-4-yl)piperidin-4-yl)ethan-1-ol] | 6.7 nM | 33 nM | 3.3 nM | 7.2 nM | > 10000 nM |  |  |  |  | 
O=S(=O)(C1CC1)n1cc(-c2nccc(Nc3cc(NC4CCC(O)CC4)c(C#Cc4cnn(C5CC5(F)F)c4)cn3)n2)cn1 (stereo not shown) [Example 85, (1s,4s)-4-((2-((2-(1-(Cyclopropylsulfonyl)-1H-pyrazol-4-yl)pyrimidin-4-yl)amino)-5-((1-(2,2-difluorocyclopropyl)-1H-pyrazol-4-yl)ethynyl)pyridin-4-yl)amino)cyclohexan-1-ol] | 3.5 nM | 50.8 nM | 1.8 nM | 7 nM | > 10000 nM | 1 nM | 3.1 nM | 1.8 nM | 3.5 nM | 114 nM
Cn1ncc(C#Cc2cnc(Nc3ccnc(-c4cnn(S(=O)(=O)C5CC5)c4)n3)cc2N2CCC(O)CC2)c1C1CC1 [Example 86, 1-(5-((5-Cyclopropyl-1-methyl-1H-pyrazol-4-yl)ethynyl)-2-((2-(1-(cyclopropylsulfonyl)-1H-pyrazol-4-yl)pyrimidin-4-yl)amino)pyridin-4-yl)piperidin-4-ol] | 6.4 nM | 73.9 nM | 1.4 nM | 23.9 nM | > 10000 nM |  |  |  |  | 
Cn1ncc(C#Cc2cnc(Nc3ccnc(-c4cnn(S(=O)(=O)C5CC5)c4)n3)cc2N2CCC(CCO)CC2)c1C1CC1 [Example 87, 2-(1-(5-((5-Cyclopropyl-1-methyl-1H-pyrazol-4-yl)ethynyl)-2-((2-(1-(cyclopropylsulfonyl)-1H-pyrazol-4-yl)pyrimidin-4-yl)amino)pyridin-4-yl)piperidin-4-yl)ethan-1-ol] | 6.2 nM | 40.5 nM | 2.3 nM | 26.3 nM | > 10000 nM |  |  |  |  | 
Cn1ncc(C#Cc2cnc(Nc3ccnc(-c4cnn(S(=O)(=O)C5CC5)c4)n3)cc2N[C@H]2CC[C@@H](O)CC2)c1C1CC1 [Example 88, (1s,4s)-4-((5-((5-Cyclopropyl-1-methyl-1H-pyrazol-4-yl)ethynyl)-2-((2-(1-(cyclopropylsulfonyl)-1H-pyrazol-4-yl)pyrimidin-4-yl)amino)pyridin-4-yl)amino)cyclohexan-1-ol] | 3.9 nM | 65 nM | 1.6 nM | 15.6 nM | > 10000 nM |  |  |  |  | 
Cn1cc(C#Cc2cnc(Nc3ccnc(-c4cnn(S(=O)(=O)C5CC5)c4)n3)cc2N2CCC(O)CC2)c(C(F)(F)F)n1 [Example 89, 1-(2-((2-(1-(Cyclopropylsulfonyl)-1H-pyrazol-4-yl)pyrimidin-4-yl)amino)-5-((1-methyl-3-(trifluoromethyl)-1H-pyrazol-4-yl)ethynyl)pyridin-4-yl)piperidin-4-ol] | 19.6 nM | 183 nM | 4.3 nM | 63.8 nM | > 10000 nM |  |  |  |  | 
Cn1cc(C#Cc2cnc(Nc3ccnc(-c4cnn(S(=O)(=O)C5CC5)c4)n3)cc2N2CCC(CO)CC2)c(C(F)(F)F)n1 [Example 90, (1-(2-((2-(1-(Cyclopropylsulfonyl)-1H-pyrazol-4-yl)pyrimidin-4-yl)amino)-5-((1-methyl-3-(trifluoromethyl)-1H-pyrazol-4-yl)ethynyl)pyridin-4-yl)piperidin-4-yl)methanol] | 11.8 nM | 37.2 nM | 3.6 nM | 28.5 nM | > 10000 nM |  |  |  |  | 
Cn1cc(C#Cc2cnc(Nc3ccnc(-c4cnn(S(=O)(=O)C5CC5)c4)n3)cc2N2CCC(CCO)CC2)c(C(F)(F)F)n1 [Example 91, 2-(1-(2-((2-(1-(Cyclopropylsulfonyl)-1H-pyrazol-4-yl)pyrimidin-4-yl)amino)-5-((1-methyl-3-(trifluoromethyl)-1H-pyrazol-4-yl)ethynyl)pyridin-4-yl)piperidin-4-yl)ethan-1-ol] | 13.9 nM | 166 nM | 5.6 nM | 76.8 nM | > 10000 nM |  |  |  |  | 
Cn1cc(C#Cc2cnc(Nc3ccnc(-c4cnn(S(=O)(=O)C5CC5)c4)n3)cc2N[C@H]2CC[C@@H](O)CC2)c(C(F)(F)F)n1 [Example 92, (1s,4s)-4-((2-((2-(1-(Cyclopropylsulfonyl)-1H-pyrazol-4-yl)pyrimidin-4-yl)amino)-5-((1-methyl-3-(trifluoromethyl)-1H-pyrazol-4-yl)ethynyl)pyridin-4-yl)amino)cyclohexan-1-ol] | 11.3 nM | 80.7 nM | 5.5 nM | 67.5 nM | > 10000 nM |  |  |  |  | 
O=C1CCN(c2cc(Nc3ccnc(-c4cnn(S(=O)(=O)C5CC5)c4)n3)ncc2C#Cc2cnn(C3CCOCC3)c2)CC1 [Example 93, 1-(2-((2-(1-(Cyclopropylsulfonyl)-1H-pyrazol-4-yl)pyrimidin-4-yl)amino)-5-((1-(tetrahydro-2H-pyran-4-yl)-1H-pyrazol-4-yl)ethynyl)pyridin-4-yl)piperidin-4-one] | 18.2 nM | 372 nM | 2.2 nM | 64.8 nM | > 10000 nM | 2.5 nM | 18.3 nM | 1.9 nM | 43 nM | 260 nM
O=S(=O)(C1CC1)n1cc(-c2nccc(Nc3cc(N[C@H]4CC[C@@H](O)CC4)c(C#Cc4cnn(C5CCOCC5)c4)cn3)n2)cn1 [Example 94, (1s,4s)-4-((2-((2-(1-(Cyclopropylsulfonyl)-1H-pyrazol-4-yl)pyrimidin-4-yl)amino)-5-((1-(tetrahydro-2H-pyran-4-yl)-1H-pyrazol-4-yl)ethynyl)pyridin-4-yl)amino)cyclohexan-1-ol] | 3.6 nM | 30.5 nM | 2.1 nM | 8.8 nM | > 10000 nM | 1.4 nM | 4.3 nM | 2 nM | 6.7 nM | 32.3 nM
CC1(CO)CCN(c2cc(Nc3ccnc(-c4cnn(S(=O)(=O)C5CC5)c4)n3)ncc2C#Cc2cnn(C3CCOCC3)c2)CC1 [Example 95, (1-(2-((2-(1-(Cyclopropylsulfonyl)-1H-pyrazol-4-yl)pyrimidin-4-yl)amino)-5-((1-(tetrahydro-2H-pyran-4-yl)-1H-pyrazol-4-yl)ethynyl)pyridin-4-yl)-4-methylpiperidin-4-yl)methanol] | 2 nM | 4.1 nM | 1.6 nM | 2.3 nM | 1040 nM | 0.9 nM | 1.4 nM | 1.5 nM | 2.7 nM | 5 nM
